Data from ChEMBL document CHEMBL1201862, “PubChem BioAssay data set” (2004).
Activity calls are given as the source filed them.

How the values were obtained:
[1] = molecular target: T1, Cytochrome P450 1A2 (Homo sapiens, UniProt P05177);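 further: PubChem cytochrome P450 panel assay, CYP1A2 panel member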
T1 sequence (P05177 whole entry): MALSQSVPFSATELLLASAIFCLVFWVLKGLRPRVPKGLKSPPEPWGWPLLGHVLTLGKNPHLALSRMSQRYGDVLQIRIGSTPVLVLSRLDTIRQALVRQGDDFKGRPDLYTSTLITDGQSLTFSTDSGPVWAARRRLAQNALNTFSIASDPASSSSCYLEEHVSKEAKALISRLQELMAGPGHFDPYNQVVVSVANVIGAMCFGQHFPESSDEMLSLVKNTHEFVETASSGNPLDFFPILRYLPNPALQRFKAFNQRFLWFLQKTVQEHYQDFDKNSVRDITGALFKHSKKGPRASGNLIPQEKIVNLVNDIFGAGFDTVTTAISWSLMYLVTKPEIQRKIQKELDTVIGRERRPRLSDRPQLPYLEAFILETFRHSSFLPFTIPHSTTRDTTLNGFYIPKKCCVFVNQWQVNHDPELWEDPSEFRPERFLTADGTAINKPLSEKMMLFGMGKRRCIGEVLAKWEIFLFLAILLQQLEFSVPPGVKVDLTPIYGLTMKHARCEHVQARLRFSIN

[2] = molecular target: Cytochrome P450 3A4 (Homo sapiens, UniProt P08684);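 further: CYP3A4 tested as one member of a cytochrome P450 panel screen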
Sequence of Cytochrome P450 3A4 (P08684 whole entry): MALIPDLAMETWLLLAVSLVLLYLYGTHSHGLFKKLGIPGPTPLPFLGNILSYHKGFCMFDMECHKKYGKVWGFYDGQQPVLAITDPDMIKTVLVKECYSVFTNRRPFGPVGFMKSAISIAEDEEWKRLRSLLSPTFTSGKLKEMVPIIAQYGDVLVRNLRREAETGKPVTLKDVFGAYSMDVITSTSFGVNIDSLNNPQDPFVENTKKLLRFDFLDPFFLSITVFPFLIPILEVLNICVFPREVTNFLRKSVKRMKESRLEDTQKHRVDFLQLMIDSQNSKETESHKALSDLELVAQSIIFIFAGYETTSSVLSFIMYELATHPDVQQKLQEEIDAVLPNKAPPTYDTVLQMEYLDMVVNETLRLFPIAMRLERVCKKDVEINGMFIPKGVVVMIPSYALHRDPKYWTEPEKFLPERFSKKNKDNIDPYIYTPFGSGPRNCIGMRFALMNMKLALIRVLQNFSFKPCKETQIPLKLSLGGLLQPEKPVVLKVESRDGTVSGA

[3] = inhibitors of intracellular T. cruzi replication, confirmation, NIH3T3 host cells, beta-gal luminescence (AID 2044); type: functional, cell-based;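 further: intracellular parasites grown in NIH/3T3 mouse fibroblasts as host cells; luminescent beta-galactosidase reporter signal from transgenic T. cruzi replicating inside host cells; inhibitors lower the luminescence signal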
[4] = cytotoxicity toward NIH3T3 fibroblasts, dose response, counter-screen, cell-based, ATP luminescence, mouse fibroblasts (AID 2010); type: functional;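 further: cells exposed to compound for about 90 hours before reading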
[5] = Luminescence Cell-Based Dose Retest to Confirm Inhibitors of Cancer Stem Cells. [Related pubchem assays (depositor defined):AID2717, AID2721]; type: functional; conditions: Homo sapiens
[6] = test system: Streptococcus sp. 'group A'; test: growth inhibition of control SK(-) GAS strain, dose response, counter-screen for streptokinase expression inhibitor project, luminescence, kanamycin, BacTiterGlo, confirmation (AID 1900); type: functional, organism-based
[7] = test system: Streptococcus; test: Group A Streptococcus viability loss, dose response, counter-screen for streptokinase expression inhibitor project, luminescence, BacTiterGlo (AID 1915); type: functional, organism-based;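 further: potency for reduction of bacterial viability or growth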
[8] = molecular target: T2, Rac GTPase-activating protein 1 (Homo sapiens, UniProt Q9H0H5); test: MgcRacGAP GTPase-activating activity inhibitors, confirmation, biochemical, ADP Hunter fluorescence, primary and confirmatory (AID 624330); type: functional
T2 sequence (Q9H0H5 whole entry): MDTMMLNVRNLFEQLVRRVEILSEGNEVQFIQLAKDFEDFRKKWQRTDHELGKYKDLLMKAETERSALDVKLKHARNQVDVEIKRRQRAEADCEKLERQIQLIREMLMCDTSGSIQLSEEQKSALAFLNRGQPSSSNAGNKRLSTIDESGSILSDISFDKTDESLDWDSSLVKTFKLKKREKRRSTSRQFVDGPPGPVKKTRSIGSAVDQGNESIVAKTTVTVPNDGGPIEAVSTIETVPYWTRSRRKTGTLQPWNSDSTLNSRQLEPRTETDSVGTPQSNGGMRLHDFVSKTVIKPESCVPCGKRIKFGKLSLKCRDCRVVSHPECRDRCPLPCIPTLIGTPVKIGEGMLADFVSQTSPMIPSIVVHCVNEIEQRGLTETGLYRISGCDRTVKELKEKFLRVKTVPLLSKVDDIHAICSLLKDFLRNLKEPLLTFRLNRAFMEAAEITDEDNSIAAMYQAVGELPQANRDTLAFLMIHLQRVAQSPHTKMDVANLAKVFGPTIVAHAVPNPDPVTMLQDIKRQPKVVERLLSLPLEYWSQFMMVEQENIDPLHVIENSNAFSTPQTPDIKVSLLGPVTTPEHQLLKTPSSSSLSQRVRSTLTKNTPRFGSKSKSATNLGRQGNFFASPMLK

In the case of O=C(Nc1ccccc1)N1CCCC2(CCNCC2)C1, the AC50 [1] is reported as 25.1 µM (inconclusive) and the AC50 [2] is reported as 20 µM (inconclusive).
With COc1ccc(-c2c[n+](CC(=O)N3c4ccccc4Sc4ccccc43)c3n2CCC3)cc1 the EC50 [3] was 0.648 µM (active) and the EC50 [4] was > 60 µM (not active).
In the case of COCCNC(=O)c1onc(CSc2ccc(Cl)cc2)c1C(=O)O, the AC50 [2] is reported as 15.8 µM (inconclusive).
In the case of COc1ccc(C(c2nnnn2Cc2ccccc2)N2CCN(c3nc4ccccc4s3)CC2)cc1 (stereo not given), the EC50 [3] is reported as 3 µM (active) and the EC50 [4] is reported as 8.63 µM (active).
In the case of CCc1ccc(-c2cc3c(=O)n(CC(=O)NCCN4CCCCC4C)nc(C)n3n2)cc1 (stereo not given), the AC50 [5] is reported as 2.45 µM (active).
With Cc1ccc(Cl)cc1N1CCN(C(=O)c2ccc(CN3CCOCC3)cc2)CC1 the EC50 [3] was 2.13 µM (active) and the EC50 [4] was 4.63 µM (active).
For O=C(O)[C@@H]1CCN(Cc2oc(CO)cc(=O)c2O)C1, the AC50 [1] was 10 µM (inconclusive).
For COc1cccc(-c2sc3ccc(OC)cc3c2C#CCC(C)O)c1 (stereo not given), the AC50 [5] was 3.66 µM (active).
With CCc1ccccc1NC(=O)CN(c1ccc(OC)cc1OC)S(=O)(=O)c1ccccc1[N+](=O)[O-] the EC50 [3] was 2.25 µM (active) and the EC50 [4] was > 60 µM (not active).
For Cc1c(C)n(CCCN(C)C)c2ncnc(Nc3ccc(F)cc3)c12, the EC50 [3] was 0.9 µM (active) and the EC50 [4] was > 30 µM (not active).
For N#CC1=C(N)NC(SCc2ccc(Br)cc2)=C(C#N)C12CCCCC2, the EC50 [3] was 3.29 µM (active) and the EC50 [4] was > 60 µM (not active).
With Nc1nc2c(C(=O)NCc3cccs3)nnn2c2cccc(Cl)c12 the AC50 [1] was 1 µM (inconclusive).
For Cc1nn(CC(=O)NC2C(=O)N3C(C(=O)O)=C(CSc4nnnn4C)CSC23)cc1Br (stereo not given), the EC50 [6] was 0.072 µM (active) and the EC50 [7] was 0.316 µM (active).
With CCC(C)c1ccccc1NC(=O)COC(=O)c1ccc2[nH]c3c(c2c1)CCCC3 (stereo not given) the AC50 [5] was 2.09 µM (active).
In the case of CN1CCN(c2ncc3nc(CCc4ccccc4)c(=O)n(C4CC4)c3n2)CC1, the AC50 [1] is reported as 12.6 µM (inconclusive) and the AC50 [2] is reported as 15.8 µM (inconclusive).
In the case of CCCCNC(=O)CCc1c(C)nc2c(c(C)nn2-c2ccccc2)c1C, the EC50 [3] is reported as 1.39 µM (active) and the EC50 [4] is reported as > 30 µM (not active).
With CCn1c(NC(=O)c2cccc(Cn3cc(Cl)cn3)c2)nc2ccccc21 the EC50 [6] was 3.97 µM (active) and the EC50 [7] was 18.6 µM (active).
In the case of CC1=C(/C=C\C(=O)O)C(C)(C)CCC1, the AC50 [1] is reported as 6.31 µM (inconclusive).
With COc1cc(/C=N/Nc2nc(C)cc(C)n2)ccc1O the IC50 [8] was 47.1 µM (active).
For Cn1cc(-c2nc3cnc(N4CCNCC4)nc3n(C)c2=O)c2ccccc21, the AC50 [1] was 15.8 µM (inconclusive).
With Cc1cccc(NC(=S)N(CCc2nc3cc(C)c(C)cc3[nH]2)Cc2cccnc2)c1 the EC50 [3] was 0.853 µM (active) and the EC50 [4] was > 60 µM (not active).
In the case of Oc1ccc(Nc2ncnc3c2oc2ccccc23)cc1, the IC50 [8] is reported as 15 µM (active).
For CN1CCN(c2ccnc(-c3ccc(N(C)C)cc3)n2)CC1, the AC50 [2] was 15.8 µM (inconclusive).
In the case of CC(C)NCC(O)COC1C2CC3CC(C2)CC1C3 (stereo not given), the EC50 [3] is reported as 1.14 µM (active) and the EC50 [4] is reported as > 60 µM (not active).
In the case of Oc1ccc2ccc(Cl)cc2c1, the IC50 [8] is reported as 41.9 µM (active).
With COc1cc(C(=O)N/N=C/c2cn(Cc3ccccc3)c3ccccc23)ccc1O the IC50 [8] was 90.1 µM (active).
With CCOc1cc(-c2cc(-c3ccc(NC(C)=O)cc3)nc(N)c2C#N)ccc1O the EC50 [6] was 0.651 µM (active) and the EC50 [7] was 6.34 µM (active).
In the case of COc1ccc(-n2nc([N+](=O)[O-])c(NCCc3cccc(C)c3)[n+]2[O-])cc1, the EC50 [3] is reported as 0.48 µM (active) and the EC50 [4] is reported as > 60 µM (inconclusive).
In the case of COc1cc(/C=N/N=C2\CC3CCC2(C)C3(C)C)ccc1O (stereo not given), the IC50 [8] is reported as 54.4 µM (active).
In the case of Cc1nc2ccc(Br)cn2c1C(=O)N/N=C\c1ccc(C(C)C)cc1, the AC50 [5] is reported as 2.75 µM (active).
With CCCN1C[C@H](CSC)C[C@H]2c3cccc4[nH]cc(c34)C[C@@H]21 the AC50 [1] was 3.16 µM (inconclusive).
In the case of COc1ccc(NC(=O)N2CCCC3(CCN(C(=O)c4cnccn4)CC3)C2)cc1, the AC50 [2] is reported as 15.8 µM (inconclusive).
For COc1ccc(CN(C)CC(=O)Nc2ccc(Cl)cc2C(F)(F)F)c(OC)c1, the IC50 [8] was 84.4 µM (active).
In the case of COc1cc2nc(=S)n(CCCN3CCOCC3)c(N)c2cc1OC, the IC50 [8] is reported as 202 µM (active).
For COc1ccc2[nH]c3c(c2c1)CCN=C3C, the AC50 [2] was 5.01 µM (inconclusive).
In the case of Cn1c(=O)c2c(nc(Cl)n2Cc2ccc(Cl)c(Cl)c2)n(C)c1=O, the AC50 [2] is reported as 15.8 µM (inconclusive).
With CN(C)C=O.O=[N+]([O-])c1cccc(COc2ncnc3cc([N+](=O)[O-])ccc23)c1 the EC50 [3] was 1.93 µM (active) and the EC50 [4] was > 60 µM (not active).
In the case of COc1ccc(-c2nc3cnc(OC)nc3n(CCC#N)c2=O)cc1, the AC50 [1] is reported as 6.31 µM (inconclusive).
In the case of O=c1ccn(-c2ccccc2)[nH]1, the IC50 [8] is reported as 46.9 µM (active).
In the case of CCS(=O)(=O)N1CCC(C(=O)NCCCOC)CC1, the AC50 [2] is reported as 0.0562 µM (inconclusive).
For CCO/C(O)=C(/C#N)c1nc2ccccc2nc1N(CC(C)C)CC(C)C, the AC50 [5] was 6.07 µM (active).
In the case of Clc1ccc(COc2cccc(CNCc3ccncc3)c2)cc1, the EC50 [3] is reported as 3.42 µM (active) and the EC50 [4] is reported as > 60 µM (not active).
For O=[N+]([O-])c1ccc(Nc2nc(NC3CCCCC3)nc(N3CCCC3)n2)cc1, the EC50 [3] was 1.75 µM (active) and the EC50 [4] was > 60 µM (not active).
In the case of Cc1ccc(C)c(-n2c(Cc3cc(O)nc(O)n3)nnc2SCC(=O)NCC2CCCO2)c1 (stereo not given), the AC50 [2] is reported as 31.6 µM (inconclusive).
For CN(CCc1ccccn1)Cc1ccc(Cl)c(Cl)c1, the EC50 [3] was 0.244 µM (active) and the EC50 [4] was > 60 µM (not active).
For COC(=O)c1ccc(N2CCN(c3ccccc3)CC2)c(NC(=O)C2CC2)c1, the AC50 [1] was 39.8 µM (inconclusive) and the AC50 [2] was 25.1 µM (inconclusive).
With Cc1c(C(=O)Nc2ccc3c(c2)OCCO3)sc2nc(-c3ccccc3)cn12 the EC50 [6] was 3.01 µM (active) and the EC50 [7] was 7.44 µM (active).
In the case of COc1ccc(/C=N/N(Cc2ccccc2)c2ccccc2)cc1O, the AC50 [5] is reported as 6.09 µM (active).
With COC(=O)c1ccc(-c2noc(CN(Cc3ccncc3)CC3CCCO3)n2)cc1 (stereo not given) the EC50 [3] was 2.46 µM (active) and the EC50 [4] was > 60 µM (inconclusive).
In the case of C#CCCCO/N=C1/C[C@@H](O)[C@@H](O)[C@@H]2[C@@H]3C(=O)N(CCC(=O)OCC)C(=O)[C@H]3CC[C@@H]12, the AC50 [2] is reported as 3.16 µM (inconclusive).
For CC1=C(C(=O)Nc2cccnc2)C(c2cccnc2)n2nc(-c3cccs3)nc2N1 (stereo not given), the AC50 [1] was 5.01 µM (inconclusive).
With COc1cccc(Oc2nc(-c3ccncc3)nc3ccccc23)c1 the EC50 [3] was 2.41 µM (active) and the EC50 [4] was 7.86 µM (active).
